In patent US12643903B2, “Bifunctional compounds for degradation of EGFR and related methods of use” (BeiGene, Ltd., priority 2020, dated 2026) one finds DC50 data, which are given here for 14 compounds.

Where only a bound is given, the exact number is not on record here.

Common to all, as to assay type: cell-based
Holding throughout (conditions): 16 h treatment, EGFR degradation by HTRF
(TR-FRET usually uses a lanthanide donor and a delayed reading to cut background.)

One assay addresses T1, EGFR LTC (Homo sapiens, UniProt P00533, C797S/L858R/T790M).
T1 construct: expressed in transfected cells; host or cells: BaF3
Description: Cell Degradation 3: EGFR degradation in BaF3 cells (LTC), HTRF assay. The method, then: (§1) Cell Degradation 3 Cell Treatment
(§2) BaF3 cells are treated with compounds diluted in 0.2% DMSO, dilution is done according to the following protocol: (1) make 500× stock solution in DMSO from 5 mM by 4-fold dilution, total 8 doses were included; (2) make 2× solution in cell culture medium by transferring 0.5 μl 500× stock solution into 125 μl medium; (3) 30 μl of 2× solution is added to cells and incubate for 16 h.
(§3) After 16 h treatment, add 20 μl 4×lysis buffer to each well; seal the plate and incubate 1 hour at room temperature on a plate shaker; Once the cells are lysed, 16 μL of cell lysate are transferred to a PE 384-well HTRF detection plate (for triple mutant cells, the lysate were diluted by the qual volume 1×lysis buffer before transfer); 4 μL of pre-mixed HTRF antibodies are added to each well; Cover the plate with a plate sealer, spin 1000 rpm for 1 min, Incubate overnight at room temperature; Read on BMG PheraStar with HTRF protocol (337 nm-665 nm-620 nm).
(§4) The IC50 (DC50) value of a compound can be obtained by fitting the following equation Y=Bottom+(TOP−Bottom)/(1+((IC50/X)^hillslope))
(§5) Wherein, X and Y are known values, and IC50, Hillslope, Top and Bottom are the parameters obtained by fitting with software. Y is the inhibition percentage (calculated from the equation), X is the concentration of the compound; IC50 is the concentration of the compound when the 50% inhibition is reached. The smaller the IC50 value is, the stronger the inhibitory ability of the compound is. Vice versa, the higher the IC50 value is, the weaker the ability the inhibitory ability of the compound is; Hillslope represents the slope of the fitted curve, generally around 1*; Bottom represents the minimum value of the curve obtained by data fitting, which is generally 0%±20%; Top represents the maximum value of the curve obtained by data fitting, which is generally 100%±20%. The experimental data were fitted by calculating and analyzing with Dotmatics data analysis software.

A further assay has as its system EGFR DTC. The assay can be described thus: Cell Degradation 3: EGFR degradation in BaF3 cells (DTC), HTRF assay. The method, then:
as §1, §2, §3, §4, §5

Assay [1] deals with T2, EGFR (Homo sapiens, UniProt P00533, L858R/T790M).
T2 construct: endogenous in cells; host or cells: H1975
The assay can be described thus: Cell Degradation 1: EGFR degradation in H1975 cells, HTRF assay. The procedure, abridged: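 EGFR levels were read by HTRF (337 nm excitation, 665 and 620 nm emission) in lysates of H1975 cells exposed to compound for 16 h, with antibodies incubated overnight at room temperature. Fitting percent inhibition versus concentration to a Hill equation gave DC50.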

Assay [2] addresses T3, EGFR (Homo sapiens, UniProt P00533, DEL746-750).
T3 construct: endogenous in cells; host or cells: HCC827
Description: Cell Degradation 2: EGFR degradation in HCC827 cells, HTRF assay. The procedure, abridged: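 DC50 values derive from four-parameter fits of percent inhibition versus concentration. The HTRF read-out (665/620 nm ratio, 337 nm excitation) followed 16 h compound exposure of HCC827 cells, 1 h lysis and overnight room-temperature incubation with the HTRF antibodies.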

T1 sequence (P00533 25-1210 T790M/C797S/L858R): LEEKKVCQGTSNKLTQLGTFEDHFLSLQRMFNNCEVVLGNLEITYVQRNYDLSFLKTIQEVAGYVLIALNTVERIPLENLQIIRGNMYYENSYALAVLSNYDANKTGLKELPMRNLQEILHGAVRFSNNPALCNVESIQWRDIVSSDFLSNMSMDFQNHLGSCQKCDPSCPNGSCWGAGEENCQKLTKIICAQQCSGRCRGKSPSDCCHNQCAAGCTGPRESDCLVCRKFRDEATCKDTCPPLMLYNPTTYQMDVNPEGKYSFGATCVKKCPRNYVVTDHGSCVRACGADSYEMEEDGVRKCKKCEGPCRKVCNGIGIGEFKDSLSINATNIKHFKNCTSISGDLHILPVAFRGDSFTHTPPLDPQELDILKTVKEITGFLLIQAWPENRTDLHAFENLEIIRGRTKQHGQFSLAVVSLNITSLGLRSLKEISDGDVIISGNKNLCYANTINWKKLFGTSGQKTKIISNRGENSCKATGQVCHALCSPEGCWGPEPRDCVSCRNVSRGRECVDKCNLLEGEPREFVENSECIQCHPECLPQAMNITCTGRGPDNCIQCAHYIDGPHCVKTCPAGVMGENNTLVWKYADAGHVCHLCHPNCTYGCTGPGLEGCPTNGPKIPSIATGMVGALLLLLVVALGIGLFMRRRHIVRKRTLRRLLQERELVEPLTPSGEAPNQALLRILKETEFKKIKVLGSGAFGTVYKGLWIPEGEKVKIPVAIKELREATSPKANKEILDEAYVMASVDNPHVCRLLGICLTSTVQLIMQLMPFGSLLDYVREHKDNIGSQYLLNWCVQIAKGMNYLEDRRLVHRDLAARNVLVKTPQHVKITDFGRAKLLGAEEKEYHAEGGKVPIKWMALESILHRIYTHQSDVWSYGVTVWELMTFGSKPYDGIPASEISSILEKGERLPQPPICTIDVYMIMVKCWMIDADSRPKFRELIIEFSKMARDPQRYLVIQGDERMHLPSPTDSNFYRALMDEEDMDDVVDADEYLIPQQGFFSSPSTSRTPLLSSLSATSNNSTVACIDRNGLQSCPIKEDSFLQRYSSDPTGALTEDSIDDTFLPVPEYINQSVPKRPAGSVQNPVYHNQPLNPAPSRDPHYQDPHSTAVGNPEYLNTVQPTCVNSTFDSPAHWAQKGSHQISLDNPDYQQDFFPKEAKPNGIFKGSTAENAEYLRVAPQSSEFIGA
T2 sequence (P00533 25-1210 T790M/L858R): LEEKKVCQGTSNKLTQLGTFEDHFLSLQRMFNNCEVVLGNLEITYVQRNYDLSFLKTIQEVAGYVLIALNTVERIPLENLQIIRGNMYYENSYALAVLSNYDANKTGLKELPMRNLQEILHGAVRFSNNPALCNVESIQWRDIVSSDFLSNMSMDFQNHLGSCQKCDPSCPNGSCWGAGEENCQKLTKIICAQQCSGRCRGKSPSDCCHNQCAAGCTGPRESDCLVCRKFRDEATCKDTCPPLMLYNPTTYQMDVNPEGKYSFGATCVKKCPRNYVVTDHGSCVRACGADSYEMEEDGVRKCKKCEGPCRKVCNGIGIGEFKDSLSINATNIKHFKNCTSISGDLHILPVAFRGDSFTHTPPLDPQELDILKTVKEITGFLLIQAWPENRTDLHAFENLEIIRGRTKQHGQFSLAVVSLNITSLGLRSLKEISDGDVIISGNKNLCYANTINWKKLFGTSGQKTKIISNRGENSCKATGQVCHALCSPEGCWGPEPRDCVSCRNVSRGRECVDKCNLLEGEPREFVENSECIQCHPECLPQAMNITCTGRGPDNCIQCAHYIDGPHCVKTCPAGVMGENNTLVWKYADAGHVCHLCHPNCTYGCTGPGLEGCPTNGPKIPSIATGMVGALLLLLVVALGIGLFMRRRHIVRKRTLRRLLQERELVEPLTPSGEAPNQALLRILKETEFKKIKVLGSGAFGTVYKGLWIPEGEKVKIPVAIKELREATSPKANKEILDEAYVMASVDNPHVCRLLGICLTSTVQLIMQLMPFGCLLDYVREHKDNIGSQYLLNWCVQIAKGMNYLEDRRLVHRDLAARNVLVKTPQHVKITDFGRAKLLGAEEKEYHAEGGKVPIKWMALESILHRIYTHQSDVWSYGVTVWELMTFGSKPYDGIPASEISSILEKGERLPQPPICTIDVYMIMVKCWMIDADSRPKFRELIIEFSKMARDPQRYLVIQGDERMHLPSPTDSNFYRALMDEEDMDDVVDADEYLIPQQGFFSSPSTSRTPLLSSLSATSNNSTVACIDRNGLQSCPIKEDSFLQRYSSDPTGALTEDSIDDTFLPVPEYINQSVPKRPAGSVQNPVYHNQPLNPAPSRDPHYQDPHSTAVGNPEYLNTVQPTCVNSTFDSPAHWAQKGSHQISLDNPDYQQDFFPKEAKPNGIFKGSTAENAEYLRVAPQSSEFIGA
T3 sequence (P00533 with tags, fused parts or gaps DEL746-750): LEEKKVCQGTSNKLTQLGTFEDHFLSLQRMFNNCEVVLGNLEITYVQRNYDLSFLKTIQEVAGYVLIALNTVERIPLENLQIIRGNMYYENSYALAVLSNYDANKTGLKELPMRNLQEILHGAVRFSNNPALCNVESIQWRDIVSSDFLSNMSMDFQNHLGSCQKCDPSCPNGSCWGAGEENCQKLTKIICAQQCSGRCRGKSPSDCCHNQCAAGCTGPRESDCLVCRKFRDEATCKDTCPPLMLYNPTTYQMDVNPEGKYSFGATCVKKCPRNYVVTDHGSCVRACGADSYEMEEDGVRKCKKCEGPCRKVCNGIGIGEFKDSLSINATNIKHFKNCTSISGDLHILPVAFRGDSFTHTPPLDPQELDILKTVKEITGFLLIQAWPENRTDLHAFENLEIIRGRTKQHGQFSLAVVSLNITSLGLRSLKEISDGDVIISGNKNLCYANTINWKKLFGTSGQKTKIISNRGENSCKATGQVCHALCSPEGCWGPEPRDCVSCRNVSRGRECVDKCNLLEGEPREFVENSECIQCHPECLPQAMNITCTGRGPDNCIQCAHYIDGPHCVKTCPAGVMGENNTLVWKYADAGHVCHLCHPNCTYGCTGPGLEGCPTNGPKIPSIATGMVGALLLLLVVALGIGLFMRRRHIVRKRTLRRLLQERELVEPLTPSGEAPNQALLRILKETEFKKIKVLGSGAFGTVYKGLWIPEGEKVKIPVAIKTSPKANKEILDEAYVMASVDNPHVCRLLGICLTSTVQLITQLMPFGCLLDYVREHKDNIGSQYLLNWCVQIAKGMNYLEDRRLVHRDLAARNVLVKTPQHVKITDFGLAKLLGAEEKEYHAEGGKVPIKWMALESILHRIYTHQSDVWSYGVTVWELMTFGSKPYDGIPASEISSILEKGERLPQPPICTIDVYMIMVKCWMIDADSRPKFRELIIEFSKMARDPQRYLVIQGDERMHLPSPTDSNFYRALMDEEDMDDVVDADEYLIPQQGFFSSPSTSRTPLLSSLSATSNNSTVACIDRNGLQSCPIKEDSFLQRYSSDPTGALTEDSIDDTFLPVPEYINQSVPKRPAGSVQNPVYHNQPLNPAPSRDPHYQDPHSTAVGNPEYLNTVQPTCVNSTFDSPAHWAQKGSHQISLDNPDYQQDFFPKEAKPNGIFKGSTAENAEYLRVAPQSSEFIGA
T3 sequence (Q96SW2 whole entry partner): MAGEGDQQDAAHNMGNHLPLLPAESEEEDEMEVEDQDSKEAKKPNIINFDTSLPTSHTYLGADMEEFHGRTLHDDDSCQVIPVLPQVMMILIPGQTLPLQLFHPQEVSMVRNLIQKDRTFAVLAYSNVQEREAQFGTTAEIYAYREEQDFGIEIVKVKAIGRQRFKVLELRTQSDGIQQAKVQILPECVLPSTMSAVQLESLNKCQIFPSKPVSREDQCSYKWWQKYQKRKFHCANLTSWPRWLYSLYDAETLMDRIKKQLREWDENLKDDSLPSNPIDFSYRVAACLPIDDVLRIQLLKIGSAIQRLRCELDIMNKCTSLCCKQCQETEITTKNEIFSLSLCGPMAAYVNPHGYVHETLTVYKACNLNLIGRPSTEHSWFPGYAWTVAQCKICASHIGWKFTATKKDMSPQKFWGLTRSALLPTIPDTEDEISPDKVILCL

Regarding `COc1cc(N2CCC(N3CCN(C[C@H]4C[C@H](N(C)c5ccc(C6CCC(=O)NC6=O)cc5)C4)CC3)CC2)c(C)cc1Nc1ncc(Br)c(Nc2cccc3c2N(S(C)(=O)=O)CC3)n1` (stereo partly shown) [Example 176, 3-(4-(((1r,3r)-3-((4-(1-(4-((5-bromo-4-((1-(methylsulfonyl)indolin-7-yl)amino)pyrimidin-2-yl)amino)-5-methoxy-2-methylphenyl)piperidin-4-yl)piperazin-1-yl)methyl)cyclobutyl)(methyl)amino)phenyl)piperidine-2,6-dione], the half-maximal degradation concentration (DC50) (in general, the concentration giving 50% degradation) stood at 65 nM at EGFR LTC and 94 nM with EGFR DTC.
In the case of `COc1cc(N2CCC(N3CCN(CC4CN(c5ccc6c(c5)C(=O)N(C5CCC(=O)NC5=O)C6)C4)CC3)CC2)c(C)cc1Nc1ncc(Br)c(Nc2cccc3c2N(S(C)(=O)=O)CC3)n1` (stereo not shown) [Example 180, 3-(6-(3-((4-(1-(4-((5-bromo-4-((1-(methylsulfonyl)indolin-7-yl)amino)pyrimidin-2-yl)amino)-5-methoxy-2-methylphenyl)piperidin-4-yl)piperazin-1-yl)methyl)azetidin-1-yl)-1-oxoisoindolin-2-yl)piperidine-2,6-dione], the DC50 at EGFR LTC was 30 nM; in the assay with EGFR DTC, 14 nM.
On the same counts, the results for `COc1cc(N2CCC(N3CCN(CCc4ccc(C5CCC(=O)NC5=O)c(F)c4)CC3)CC2)c(C)cc1Nc1nc(Nc2cccc3c2N(S(C)(=O)=O)CC3)c2cc[nH]c2n1` (stereo not shown) [Example 162, 3-(2-fluoro-4-(2-(4-(1-(5-methoxy-2-methyl-4-((4-((1-(methylsulfonyl)indolin-7-yl)amino)-7H-pyrrolo[2,3-d]pyrimidin-2-yl)amino)phenyl)piperidin-4-yl)piperazin-1-yl)ethyl)phenyl)piperidine-2,6-dione] are > 10000 nM and 78 nM.
In the case of `CCOc1cc(N2CCC(N3CCN(CCc4cc(F)c([C@H]5CCC(=O)NC5=O)c(F)c4)CC3)CC2)c(CC)cc1Nc1ncc(Br)c(Nc2ccc(CC)c3c2N(S(C)(=O)=O)CC3)n1` [Example 203, (R)-3-(4-(2-(4-(1-(4-((5-bromo-4-((4-ethyl-1-(methylsulfonyl)indolin-7-yl)amino)pyrimidin-2-yl)amino)-5-ethoxy-2-ethylphenyl)piperidin-4-yl)piperazin-1-yl)ethyl)-2,6-difluorophenyl)piperidine-2,6-dione], half-maximal degradation at EGFR LTC (DC50) was put at 83 nM.
`COc1cc(N2CCC(N3CCN(CCN4CCC(c5ccc(NC6CCC(=O)NC6=O)cc5)CC4)CC3)CC2)c(C)cc1Nc1ncc(Br)c(Nc2cccc3c2N(S(C)(=O)=O)CC3)n1` (stereo not shown) [Example 157, 3-((4-(1-(2-(4-(1-(4-((5-bromo-4-((1-(methylsulfonyl)indolin-7-yl)amino)pyrimidin-2-yl)amino)-5-methoxy-2-methylphenyl)piperidin-4-yl)piperazin-1-yl)ethyl)piperidin-4-yl)phenyl)amino)piperidine-2,6-dione]: the half-maximal degradation concentration (DC50) at EGFR LTC worked out at 396 nM; with EGFR DTC, 300 nM.
Turning to `CCc1cc(Nc2ncc(Br)c(Nc3ccc(N(C)C)c4c3N(S(C)(=O)=O)CC4)n2)c(OC)cc1N1CCC(N2CCN(CCc3cc(F)c([C@H]4CCC(=O)NC4=O)c(F)c3)CC2)CC1` [Example 200, (R)-3-(4-(2-(4-(1-(4-((5-bromo-4-((4-(dimethylamino)-1-(methylsulfonyl)indolin-7-yl)amino)pyrimidin-2-yl)amino)-2-ethyl-5-methoxyphenyl)piperidin-4-yl)piperazin-1-yl)ethyl)-2,6-difluorophenyl)piperidine-2,6-dione], on EGFR LTC, the DC50 was 513 nM.
With `CCc1cc(Nc2ncc(Br)c(Nc3ccc(C4CC4)c4c3N(S(C)(=O)=O)CC4)n2)c(OC)cc1N1CCC(N2CCN(CCc3cc(F)c(C4CCC(=O)NC4=O)c(F)c3)CC2)CC1` (stereo not shown) [Example 193, 3-(4-(2-(4-(1-(4-((5-bromo-4-((4-cyclopropyl-1-(methylsulfonyl)indolin-7-yl)amino)pyrimidin-2-yl)amino)-2-ethyl-5-methoxyphenyl)piperidin-4-yl)piperazin-1-yl)ethyl)-2,6-difluorophenyl)piperidine-2,6-dione], the half-maximal degradation concentration (DC50) at EGFR LTC stood at 74 nM.
Same read-out and setting: under `CCc1cc(Nc2ncc(Br)c(Nc3ccc(C(F)(F)F)c4c3N(S(C)(=O)=O)CC4)n2)c(OC)cc1N1CCC(N2CCN(C(=O)C3CN(c4cc(F)c([C@H]5CCC(=O)NC5=O)c(F)c4)C3)CC2)CC1` [Example 196, (R)-3-(4-(3-(4-(1-(4-((5-bromo-4-((1-(methylsulfonyl)-4-(trifluoromethyl)indolin-7-yl)amino)pyrimidin-2-yl)amino)-2-ethyl-5-methoxyphenyl)piperidin-4-yl)piperazine-1-carbonyl)azetidin-1-yl)-2,6-difluorophenyl)piperidine-2,6-dione] stands 71 nM.
On the same count and under the same terms, the figure for `CCc1cc(Nc2ncc(Br)c(Nc3ccc(F)c4c3N(S(C)(=O)=O)CC4)n2)c(OC)cc1N1CCC(N2CCN(C(=O)[C@@H]3CCN(c4cc(F)c([C@H]5CCC(=O)NC5=O)c(F)c4)C3)CC2)CC1` [Example 194, (R)-3-(4-((R)-3-(4-(1-(4-((5-bromo-4-((4-fluoro-1-(methylsulfonyl)indolin-7-yl)amino)pyrimidin-2-yl)amino)-2-ethyl-5-methoxyphenyl)piperidin-4-yl)piperazine-1-carbonyl)pyrrolidin-1-yl)-2,6-difluorophenyl)piperidine-2,6-dione] is 29 nM.
On EGFR LTC, `CCc1cc(Nc2ncc(Br)c(Nc3ccc(F)c4c3N(S(C)(=O)=O)CC4)n2)c(OC)cc1N1CCC(N2CCN(CCc3cc(F)c([C@H]4CCC(=O)NC4=O)c(F)c3)CC2)CC1` [Example 195, (R)-3-(4-(2-(4-(1-(4-((5-bromo-4-((4-fluoro-1-(methylsulfonyl)indolin-7-yl)amino)pyrimidin-2-yl)amino)-2-ethyl-5-methoxyphenyl)piperidin-4-yl)piperazin-1-yl)ethyl)-2,6-difluorophenyl)piperidine-2,6-dione] yielded a DC50 of 24 nM.
Take `CCc1cc(Nc2ncc(Br)c(Nc3ccc(C(F)(F)F)c4c3N(S(C)(=O)=O)CC4)n2)c(OC)cc1N1CCC(N2CCN(C(=O)[C@@H]3CCN(c4cc(F)c([C@H]5CCC(=O)NC5=O)c(F)c4)C3)CC2)CC1` [Example 197, (R)-3-(4-((R)-3-(4-(1-(4-((5-bromo-4-((1-(methylsulfonyl)-4-(trifluoromethyl)indolin-7-yl)amino)pyrimidin-2-yl)amino)-2-ethyl-5-methoxyphenyl)piperidin-4-yl)piperazine-1-carbonyl)pyrrolidin-1-yl)-2,6-difluorophenyl)piperidine-2,6-dione]: it took 83 nM to reach half-maximal degradation on EGFR LTC (DC50).
Still for that read-out and setting: under `CCc1cc(Nc2ncc(Br)c(Nc3ccc(CC)c4c3N(S(C)(=O)=O)CC4)n2)c(OC)cc1N1CCC(N2CCN(CCc3cc(F)c(C4CCC(=O)NC4=O)c(F)c3)CC2)CC1` (stereo not shown) [Example 192, 3-(4-(2-(4-(1-(4-((5-bromo-4-((4-ethyl-1-(methylsulfonyl)indolin-7-yl)amino)pyrimidin-2-yl)amino)-2-ethyl-5-methoxyphenyl)piperidin-4-yl)piperazin-1-yl)ethyl)-2,6-difluorophenyl)piperidine-2,6-dione] stands 65 nM.
As for `CCc1cc(Nc2ncc(Br)c(Nc3ccc(CC)c4c3N(S(C)(=O)=O)CC4)n2)c(OC)cc1N1CCC(N2CCN(C(=O)[C@@H]3CCN(c4cc(F)c([C@H]5CCC(=O)NC5=O)c(F)c4)C3)CC2)CC1` [Example 198, (R)-3-(4-((R)-3-(4-(1-(4-((5-bromo-4-((4-ethyl-1-(methylsulfonyl)indolin-7-yl)amino)pyrimidin-2-yl)amino)-2-ethyl-5-methoxyphenyl)piperidin-4-yl)piperazine-1-carbonyl)pyrrolidin-1-yl)-2,6-difluorophenyl)piperidine-2,6-dione], on EGFR LTC, half-maximal degradation (DC50) was put at 34 nM.
On to `CS(=O)(=O)N1CCc2cccc(Nc3nc(Nc4ccc(N5CCC(N6CCN(CCC7CCN(c8ccc9c(c8)C(=O)N(C8CCC(=O)NC8=O)C9=O)CC7)CC6)CC5)c5c4OCC5)ncc3Cl)c21` (stereo not shown) [Example 52, 5-(4-(2-(4-(1-(7-((5-chloro-4-((1-(methylsulfonyl)indolin-7-yl)amino)pyrimidin-2-yl)amino)-2,3-dihydrobenzofuran-4-yl)piperidin-4-yl)piperazin-1-yl)ethyl)piperidin-1-yl)-2-(2,6-dioxopiperidin-3-yl)isoindoline-1,3-dione], for which the DC50 on EGFR [1] amounted to 7 nM; on EGFR [2], 3.5 nM.
